This passage reports EC50 results from ChEMBL document CHEMBL1155613, “Urinary metabolites of gallic acid in rats and their radical-scavenging effects on 1,1-diphenyl-2-picrylhydrazyl radical” (J Nat Prod, 2000).

Where only a bound is given, the exact number is not on record here.

The test system of this assay is Radical scavenging activity. Description: Antioxidant activity assessed as DPPH free radical scavenging activity. The assay is classed as functional. (DPPH is a stable violet radical that fades when it is reduced.)

A word on the EC50: it is the concentration giving half of the maximal effect. In the case of `Cc1c(C)c2c(c(C)c1O)CCC(C)(CCCC(C)CCCC(C)CCCC(C)C)O2` (racemic) [alpha-TOCHOPHEROL], the EC50 amounted to 19.9 µM.

`COc1c(O)cc(C(=O)O)cc1O`: the EC50 is above 100 µM.

For the compound `COc1c(O)cccc1O[C@@H]1O[C@H](C(=O)O)[C@@H](O)[C@H](O)[C@H]1O`, the EC50 was above 100 µM.

With `O=C1O[C@H]([C@@H](O)CO)C(O)=C1O` [ASCORBIC ACID], the EC50 was 16.6 µM.

On to `COc1c(O)cc(C(=O)O)cc1OS(=O)(=O)O`, for which the EC50 was above 100 µM.

As for `COc1c(O)cccc1O` [2-METHOXYRESORCINOL], the EC50 stood at 99.6 µM.

On to `Oc1cccc(O)c1O` [PYROGALLOL], for which the EC50 amounted to 4.2 µM.

Regarding `O=C(O)c1cc(O)c(O)c(O)c1` [GALLIC ACID], the EC50 was 4.2 µM.
